According to US20060069132A1, “Azolecarboxamide herbicides” (priority 2004, published 2006):

Key:
[1] = system: common ragweed; assay: Test C pre-/postemergence herbicide test; assay type: in vivo, Ambrosia elatior; set-up: key to Plant response rating, Ragweed: 0 = no effect, 100 = complete control; settings: for Plant response rating, Ragweed: preemergence
Procedure, shortened: (§1)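 Emerged plants at the 1- to 4-leaf stage (2–18 cm), or freshly planted seeds, received test chemicals in a non-phytotoxic solvent mixture with surfactant. Response was visually scored against controls after 12 to 14 days in the greenhouse, on a 0 (no effect) to 100 (complete control) scale.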

[2] = system: smallflower umbrella sedge; assay: Test C flooded paddy test; assay type: in vivo, Cyperus difformis; settings: for Plant response rating, Sedge, Umbrella: 500 g ai/ha, visual rating after 12 to 14 days
[3] = system: rice; assay: Test B pre-/postemergence herbicide test; assay type: in vivo, Oryza sativa; settings: preemergence; for Rice plant response rating (0 to 100 scale): 125 g ai/ha; for Plant response rating, Rice: 500 g ai/ha
Procedure, shortened: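 Formulation: non-phytotoxic solvent mix with surfactant. Timing: preemergence on seed and postemergence on 2–18 cm plants, applied concurrently. Readout after 13–15 d greenhouse: visual 0–100 control rating against controls.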

[4] = system: goosegrass; assay: Test C pre-/postemergence herbicide test; assay type: in vivo, Eleusine indica; settings: for Plant response rating, Goosegrass: preemergence
Procedure, shortened: as §1

[5] = system: barnyardgrass; assay: Test B flooded paddy test; assay type: in vivo, Echinochloa crus-galli; settings: 1000 g ai/ha, visual rating, scale 0 to 100 (0 no effect, 100 complete control), 13 to 15 days
Procedure, shortened: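 Visual ratings, 0 (no effect) to 100 (complete control), made versus controls after 13–15 d greenhouse. Paddy plants treated at 2-leaf stage; postemergence plants at 1- to 4-leaf stage, 2–18 cm tall.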

[6] = system: velvetleaf; assay: Test A pre-/postemergence herbicide test; assay type: in vivo, Abutilon theophrasti
Procedure, shortened: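 Both application timings were run together: directed soil spray over freshly planted seeds in sandy loam, and runoff spray onto 2–10 cm seedlings. Evaluation after ~10 days in greenhouse used a 0–100 visual scale versus untreated controls.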

[7] = system: woolly cupgrass; assay: Test C pre-/postemergence herbicide test; assay type: in vivo, Eriochloa villosa; settings: for Plant response rating, Cupgrass, Woolly: preemergence
Procedure, shortened: as §1

[8] = system: cocklebur; assay: Test B pre-/postemergence herbicide test; assay type: in vivo, Xanthium strumarium; settings: for Cocklebur plant response rating (0 to 100 scale) / Plant response rating, Cocklebur: preemergence; for Cocklebur plant response rating: postemergence, scale 0 (no effect) to 100 (complete control)
Procedure, shortened: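 Visual rating, 0 (no effect) to 100 (complete control), versus untreated controls after 13–15 d in greenhouse. Pre- and postemergence applications (postemergence plants 2–18 cm, 1–4 leaves); flooded paddy arm at 2-leaf stage. Compounds in non-phytotoxic solvent plus surfactant.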

[9] = system: yellow nutsedge; assay: Test C pre-/postemergence herbicide test; assay type: in vivo, Cyperus esculentus; settings: for Plant response rating, Nutsedge, Yellow: preemergence
Procedure, shortened: as §1

[10] = 125 g ai/ha, scale 0 (no effect) to 100 (complete control), visual, 12 to 14 days
[11] = Preemergence, 500 g ai/ha, scale 0 to 100, 0 no effect, 100 complete control
[12] = 62 g ai/ha, scale 0 to 100 (0 no effect, 100 complete control)
[13] = 125 g ai/ha, scale 0 to 100 (0 no effect, 100 complete control)
[14] = 250 g ai/ha, scale of 0 to 100, 0 is no effect, 100 is complete control
[15] = scale 0 to 100 (0 no effect, 100 complete control)
[16] = 0 = no effect, 100 = complete control
[17] = visual rating 0-100, 0 no effect, 100 complete control
[18] = Postemergence, 500 g ai/ha, 0 to 100 scale, 0 no effect, 100 complete control
[19] = Postemergence, 2000 g ai/ha, 0 to 100 scale, 0 no effect, 100 complete control
[20] = Preemergence, 2000 g ai/ha, visual rating, 0 to 100 scale (0 no effect, 100 complete control)
[21] = preemergence, 500 g ai/ha, visual injury, 0 to 100 scale (0 no effect, 100 complete control)
[22] = 125 g ai/ha, 0 = no effect, 100 = complete control
[23] = 500 g ai/ha, visual rating 0-100, 0 no effect, 100 complete control
[24] = 500 g ai/ha, scale 0 to 100 (0 no effect, 100 complete control), visual, 12 to 14 days

Structure (SMILES) | Plant response rating, Ragweed ([1]; 250 g ai/ha, scale 0-100) | Sedge, Umbrella plant response rating [2, 12] | Sedge, Umbrella plant response rating [2, 13] | Sedge, Umbrella plant response rating [2, 14] | Plant response rating, Sedge, Umbrella [2, 15] | Rice plant response rating (0 to 100 scale) [3, 16] | Plant response rating, Goosegrass ([4]; 62 g ai/ha, scale 0 to 100) | Plant response rating, Goosegrass [4, 10] | Plant response rating, Goosegrass ([4]; 250 g ai/ha, scale 0-100) | Barnyardgrass plant response rating [5] | Velvetleaf plant response rating [6, 18] | Plant response rating, Velvetleaf [6, 19] | Velvetleaf plant response rating [6, 20] | Velvetleaf plant response rating [6, 21] | Plant response rating, Cupgrass, Woolly ([7]; 62 g ai/ha, scale 0 to 100) | Plant response rating, Cupgrass, Woolly [7, 10] | Cocklebur plant response rating (0 to 100 scale) [8, 22] | Cocklebur plant response rating ([8]; 125 g ai/ha, visual rating) | Cocklebur plant response rating ([8]; 500 g ai/ha, visual rating) | Plant response rating, Nutsedge, Yellow ([9]; 62 g ai/ha, scale 0 to 100) | other results
C=CCNC(=O)c1cccc(NC(=O)c2sc(C(C)(C)C)nc2CC)c1 [Compound 207] | 60 | 70 | 75 | 75 | 90 | 50 | 10 | 60 | 80 | 80 | 20 | 25 | 100 | 30 | 0 | 0 | 10 | 40 | 80 | 0 | Plant response rating, Ragweed ([1]; 62 g ai/ha, scale 0 to 100): 40; Plant response rating, Ragweed [1, 10]: 50; Ragweed plant response rating [1, 11]: 100; Plant response rating, Rice [3, 17]: 70; Goosegrass plant response rating [4, 11]: 100; Plant response rating, Cupgrass, Woolly ([7]; 250 g ai/ha, scale 0-100): 5; Cupgrass, Woolly plant response rating [7, 11]: 40; Plant response rating, Cocklebur [8, 23]: 20; Plant response rating, Nutsedge, Yellow [9, 10]: 0; Plant response rating, Nutsedge, Yellow ([9]; 250 g ai/ha, scale 0-100): 20; Nutsedge, Yellow plant response rating [9, 11]: 20
CCNC(=O)c1cccc(NC(=O)c2sc(C(C)(C)C)nc2CC)c1 [Compound 210] | 90 | 75 | 80 | 85 | 90 | 60 | 50 | 80 | 95 | 80 | 40 | 65 | 95 | 70 | 0 | 0 | 10 | 60 | 90 | 0 | Plant response rating, Ragweed ([1]; 62 g ai/ha, scale 0 to 100): 0; Plant response rating, Ragweed [1, 10]: 0; Plant response rating, Ragweed [1, 24]: 90; Plant response rating, Rice [3, 17]: 80; Plant response rating, Goosegrass [4, 24]: 95; Plant response rating, Cupgrass, Woolly ([7]; 250 g ai/ha, scale 0-100): 5; Plant response rating, Cupgrass, Woolly [7, 24]: 10; Plant response rating, Cocklebur [8, 23]: 40; Plant response rating, Nutsedge, Yellow [9, 10]: 0; Plant response rating, Nutsedge, Yellow ([9]; 250 g ai/ha, scale 0-100): 5; Plant response rating, Nutsedge, Yellow [9, 24]: 30
CCc1nn(C(C)(C)C)cc1C(=O)Nc1cc(C(=O)N(CC)CC)ccc1F [Compound 223] | 100 | 0 | 0 | 65 | 85 | 0 | 60 | 80 | 80 | 40 | 40 | 35 | 85 | 55 | 0 | 10 | 0 | 10 | 30 | 0 | Plant response rating, Ragweed [1, 24]: 100; Plant response rating, Rice ([3]; visual rating, 0 = no effect, 100 = complete control): 30; Plant response rating, Goosegrass [4, 24]: 100; Plant response rating, Cupgrass, Woolly [7, 24]: 80; Plant response rating, Cocklebur ([8]; 500 g ai/ha, visual rating, 0 = no effect, 100 = complete control): 20; Plant response rating, Nutsedge, Yellow [9, 10]: 0; Plant response rating, Nutsedge, Yellow ([9]; 250 g ai/ha, scale 0-100): 0; Plant response rating, Nutsedge, Yellow [9, 24]: 0
